Experimental data: patent publication US11076595B2, “1-(n,n-disubstituted carbamoyl) 4-(substituted sulfonyl)triazolin-5-one derivative, 4-(n,n-disubstituted carbamoyl) 1-(substituted sulfonyl)triazolin-5-one derivative, and herbicide containing said derivative as active ingredient” (HOKKO CHEMICAL INDUSTRY CO., LTD., priority 2017, dated 2021)

Legend:
Assay type in all cases: in vivo
[1] = tested on: Monochoria vaginalis; assay: Test Example 12: herbicidal effect test by treatment during growing period in paddy field; conditions: 120 g/10a; treatment seven days after sowing in flooded paddy pot; assessed 14 days after treatment
Summary of the method: (§1)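 Puddled paddy soil in Wagner pots, 30 seeds per species sown 0-1 cm deep, flooded to about 3 cm in a greenhouse. Seven days after sowing, water-diluted emulsifiable concentrate was dripped in at 120 g active ingredient per 10 are. Suppression (%) from dry weight versus untreated at 14 days, two replicates.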

[2] = tested on: Lindernia pyxidaria; assay: as above; conditions: 120 g/10a; treatment seven days after sowing in flooded paddy pot; assessed 14 days after treatment
Summary of the method: as §1

[3] = tested on: Scirpus juncoides; assay: as above; conditions: 120 g/10a; treatment seven days after sowing in flooded paddy pot; assessed 14 days after treatment
Summary of the method: as §1

[4] = tested on: Echinochloa crus-galli; assay: as above; conditions: 120 g/10a; treatment seven days after sowing in flooded paddy pot; assessed 14 days after treatment
Summary of the method: as §1

[5] = tested on: Monochoria vaginalis; assay: Test Example 11: herbicidal effect test by soil treatment in paddy field; conditions: 120 g/10a active ingredient, 14 days after treatment
Summary of the method: (§2)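 Weed suppression rate (%) was calculated as (1 − mean treated dry weight / mean untreated dry weight) × 100 at 14 days after treatment, two replicates per plot. Seeds were sown at 0–1 cm in flooded (about 3 cm) puddled paddy soil and treated immediately at 120 g active ingredient per 10 are.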

[6] = tested on: Lindernia pyxidaria; assay: as above; conditions: 120 g/10a active ingredient, 14 days after treatment
Summary of the method: as §2

[7] = tested on: Scirpus juncoides; assay: as above; conditions: 120 g/10a active ingredient, 14 days after treatment
Summary of the method: as §2

[8] = tested on: Echinochloa crus-galli; assay: as above; conditions: 120 g/10a active ingredient, 14 days after treatment
Summary of the method: as §2

| Structure (SMILES) | Weed suppression rate (%) Monochoria vaginalis [1] | Weed suppression rate (%) Lindemia pyxidaria [2] | Weed suppression rate (%) Scirpus juncoides [3] | Weed suppression rate (%) Echinochloa crus-galli [4] | Weed suppression rate (%) Monochoria vaginalis [5] | Weed suppression rate (%) Lindemia pyxidaria [6] | Weed suppression rate (%) Scirpus juncoides [7] | Weed suppression rate (%) Echinochloa crus-galli [8] |
| --- | --- | --- | --- | --- | --- | --- | --- | --- |
| CN(C(=O)n1cnn(S(=O)(=O)c2cccs2)c1=O)c1ccc(F)cc1F [Compound 11-1147] | 90% | 70% | 100% | 100% | 70% | 100% | 70% | 100% |
| Cc1ccc(N(C(=O)n2cnn(S(=O)(=O)c3cccc(C(F)(F)F)c3)c2=O)C(C)C)c(F)c1 [Compound 11-737] | 80% | 80% | 90% | 90% | 80% | 80% | 90% | 90% |
| CN(C(=O)n1cnn(S(=O)(=O)c2ccc(F)cc2)c1=O)c1ccc(F)cc1F [Compound 11-1137] | 80% | 70% | 100% | 100% | 80% | 90% | 100% | 100% |
| CN(C(=O)n1cnn(S(C)(=O)=O)c1=O)c1ccc(F)cc1F [Compound 11-1125] | 60% | 70% | 30% | 90% | 60% | 60% | 60% | 90% |
| Cc1ccc(S(=O)(=O)n2ncn(C(=O)N(c3cccc(F)c3F)C(C)C)c2=O)cc1 [Compound 11-636] | 100% | 80% | 100% | 100% | 100% | 100% | 90% | 100% |
| Cc1cc(C)c(S(=O)(=O)n2ncn(C(=O)N(c3ccc(Cl)cn3)C(C)C)c2=O)c(C)c1 [Compound 11-889] | 80% | 70% | 90% | 100% | 80% | 100% | 90% | 100% |
| CC(C)N(C(=O)n1cnn(S(=O)(=O)c2ccc(C(C)(C)C)cc2)c1=O)c1ccc(F)c(F)c1F [Compound 11-685] | 70% | 60% | 60% | 80% | 100% | 100% | 60% | 90% |
| Cc1ccc(S(=O)(=O)n2ncn(C(=O)N(c3ccccc3F)C(C)C)c2=O)cc1 [Compound 11-627] | 80% | 80% | 90% | 90% | 80% | 80% | 90% | 90% |
| CC(C)N(C(=O)n1cnn(S(=O)(=O)c2ccc(F)cc2)c1=O)c1ccccc1F [Compound 11-465] | 80% | 80% | 90% | 90% | 80% | 80% | 90% | 90% |
| CC(C)N(C(=O)n1cnn(S(=O)(=O)c2c(F)cccc2F)c1=O)c1c(F)cc(F)cc1F [Compound 11-777] | 80% | 70% | 70% | 90% | 80% | 90% | 100% | 100% |
| Cc1cc(C)c(S(=O)(=O)n2ncn(C(=O)N(c3ccc(F)c(F)c3F)C(C)C)c2=O)c(C)c1 [Compound 11-866] | 90% | 70% | 60% | 80% | 90% | 100% | 90% | 100% |
| Cc1cc(Cl)ccc1N(C(=O)n1cnn(S(=O)(=O)N(C)C)c1=O)C(C)C [Compound 11-1079] | 80% | 80% | 90% | 90% | 80% | 80% | 90% | 90% |
| Cc1ccc(S(=O)(=O)n2ncn(C(=O)N(c3c(F)cccc3F)C(C)C)c2=O)cc1 [Compound 11-639] | 70% | 70% | 70% | 100% | 70% | 100% | 100% | 100% |
| CC(C)N(C(=O)n1cnn(S(=O)(=O)c2ccc(C(C)(C)C)cc2)c1=O)c1ccccc1F [Compound 11-672] | 80% | 80% | 90% | 90% | 80% | 80% | 90% | 90% |
| CC(C)N(C(=O)n1cnn(S(=O)(=O)C2CCCCC2)c1=O)c1ccc(Br)cc1Cl [Compound 11-305] | 100% | 90% | 100% | 100% | 100% | 100% | 90% | 100% |
| CC(C)N(C(=O)n1cnn(S(=O)(=O)C2CCCCC2)c1=O)c1ccc(C#N)cc1Cl [Compound 11-316] | 80% | 80% | 90% | 90% | 80% | 80% | 90% | 90% |
